The values that follow come from ChEMBL document CHEMBL5465560, “Selectivity Literature for EUbOPEN Chemogenomic Library” (2024).

Experiment [1] deals with Protein-tyrosine kinase 6 (Homo sapiens, UniProt Q13882). Nature of the experiment: Selectivity interaction (KinaseProfiler screening (Millipore)) EUB0000601a PTK6. The settings on record: at 3 µM.
Experiment [2] deals with Tyrosine-protein kinase ABL1 (Homo sapiens, UniProt P00519). In words: Selectivity interaction (KinomeScan (DiscoverX)) EUB0001079a ABL1. The settings on record: at 1 µM.
Experiment [3] addresses T1, Discoidin domain-containing receptor 2 (Homo sapiens) (UniProt Q16832).
T1 sequence (whole entry): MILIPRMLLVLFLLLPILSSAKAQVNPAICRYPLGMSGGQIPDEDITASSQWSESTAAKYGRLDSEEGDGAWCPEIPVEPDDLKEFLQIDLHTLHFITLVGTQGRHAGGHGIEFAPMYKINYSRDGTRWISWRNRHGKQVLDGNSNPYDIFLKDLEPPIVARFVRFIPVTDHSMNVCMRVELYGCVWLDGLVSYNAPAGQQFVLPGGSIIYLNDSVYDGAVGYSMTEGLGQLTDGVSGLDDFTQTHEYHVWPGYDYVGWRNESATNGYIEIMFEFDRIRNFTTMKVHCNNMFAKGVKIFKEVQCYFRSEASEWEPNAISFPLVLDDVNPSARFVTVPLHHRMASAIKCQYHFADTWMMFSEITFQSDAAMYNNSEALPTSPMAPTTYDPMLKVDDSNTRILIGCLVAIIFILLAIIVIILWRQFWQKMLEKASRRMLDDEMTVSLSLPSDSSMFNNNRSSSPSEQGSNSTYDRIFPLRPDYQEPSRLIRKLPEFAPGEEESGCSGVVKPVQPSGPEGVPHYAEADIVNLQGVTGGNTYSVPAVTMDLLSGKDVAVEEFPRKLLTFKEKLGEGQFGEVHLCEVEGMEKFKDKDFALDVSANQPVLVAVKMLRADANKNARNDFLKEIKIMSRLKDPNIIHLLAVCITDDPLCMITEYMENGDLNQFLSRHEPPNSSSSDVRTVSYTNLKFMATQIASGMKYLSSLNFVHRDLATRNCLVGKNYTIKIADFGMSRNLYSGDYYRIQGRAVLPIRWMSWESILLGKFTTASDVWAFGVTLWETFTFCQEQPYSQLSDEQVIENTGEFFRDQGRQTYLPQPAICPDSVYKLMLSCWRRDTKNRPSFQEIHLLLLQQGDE
In words: Selectivity interaction (KinomeScan (DiscoverX)) EUB0000045b DDR2.

For experiment [4], the target named is T2, Aurora kinase C (Homo sapiens) (UniProt Q9UQB9).
T2 sequence (whole entry): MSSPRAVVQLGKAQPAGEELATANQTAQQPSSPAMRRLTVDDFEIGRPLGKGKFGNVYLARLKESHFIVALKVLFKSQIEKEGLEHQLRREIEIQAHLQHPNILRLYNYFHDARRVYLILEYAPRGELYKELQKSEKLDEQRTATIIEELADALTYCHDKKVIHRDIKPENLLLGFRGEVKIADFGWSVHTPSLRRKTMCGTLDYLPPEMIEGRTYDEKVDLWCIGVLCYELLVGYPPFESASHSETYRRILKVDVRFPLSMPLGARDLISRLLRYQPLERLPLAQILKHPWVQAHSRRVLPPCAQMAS
In words: Selectivity interaction (Kinase panel (Z-LYTE Assay)) EUB0001632a AURKC. The settings on record: at 10 µM.

Experiment [5] addresses Mast/stem cell growth factor receptor Kit (Homo sapiens, UniProt P10721). Nature of the experiment: Selectivity interaction (Kinase panel (Invitrogen)) EUB0000639a KIT. The settings on record: at 200 nM.
Experiment [6] has as its target Mitogen-activated protein kinase kinase kinase 1 (Homo sapiens, UniProt Q13233). Nature of the experiment: Selectivity interaction (KinomeScan (DiscoverX)) EUB0001619a MAP3K1. The settings on record: at 1 µM.
Experiment [7] addresses T3, Phosphatidylinositol 4,5-bisphosphate 3-kinase catalytic subunit delta isoform (Homo sapiens) (UniProt O00329).
T3 sequence (whole entry): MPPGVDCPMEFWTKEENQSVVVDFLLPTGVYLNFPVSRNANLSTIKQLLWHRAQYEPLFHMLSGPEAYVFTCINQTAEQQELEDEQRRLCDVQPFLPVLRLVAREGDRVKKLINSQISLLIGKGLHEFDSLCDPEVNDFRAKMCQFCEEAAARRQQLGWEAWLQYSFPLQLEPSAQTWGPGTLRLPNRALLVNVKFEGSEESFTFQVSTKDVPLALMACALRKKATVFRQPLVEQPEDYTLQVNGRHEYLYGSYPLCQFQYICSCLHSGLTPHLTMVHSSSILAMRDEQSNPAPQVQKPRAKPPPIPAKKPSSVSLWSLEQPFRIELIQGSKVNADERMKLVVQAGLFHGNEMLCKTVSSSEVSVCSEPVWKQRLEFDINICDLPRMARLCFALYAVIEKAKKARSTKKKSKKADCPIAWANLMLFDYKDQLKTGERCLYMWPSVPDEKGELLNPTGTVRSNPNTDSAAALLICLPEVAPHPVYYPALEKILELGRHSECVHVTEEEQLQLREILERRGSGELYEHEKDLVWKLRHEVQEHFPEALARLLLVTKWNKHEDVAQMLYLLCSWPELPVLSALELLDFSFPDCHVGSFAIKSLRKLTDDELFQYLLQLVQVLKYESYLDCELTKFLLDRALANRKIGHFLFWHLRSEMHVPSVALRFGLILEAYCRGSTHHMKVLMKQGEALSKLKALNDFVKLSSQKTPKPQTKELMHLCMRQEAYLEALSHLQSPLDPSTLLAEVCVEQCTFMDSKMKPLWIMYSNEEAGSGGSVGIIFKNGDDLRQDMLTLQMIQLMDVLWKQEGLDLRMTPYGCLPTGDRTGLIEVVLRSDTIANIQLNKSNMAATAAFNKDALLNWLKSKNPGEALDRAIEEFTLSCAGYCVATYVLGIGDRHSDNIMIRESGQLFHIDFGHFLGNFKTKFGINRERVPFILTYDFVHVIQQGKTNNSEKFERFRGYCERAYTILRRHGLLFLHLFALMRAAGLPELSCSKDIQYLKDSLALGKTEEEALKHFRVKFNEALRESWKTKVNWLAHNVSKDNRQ
Nature of the experiment: Selectivity interaction (Kinase panel (KiNativ target engagement assay in Jurkat cells)) EUB0001635a PIK3CD. The settings on record: Selectivity number of off-targets 0.0, Selectivity number of targets 233.0, Source Knowledge https://www.sciencedirect.com/science/article/pii/S2451945619300674?via%3Dihub, at 1 µM. The format is cell-based.

Sequence of Mitogen-activated protein kinase kinase kinase 1 (Q13233 whole entry, canonical isoform): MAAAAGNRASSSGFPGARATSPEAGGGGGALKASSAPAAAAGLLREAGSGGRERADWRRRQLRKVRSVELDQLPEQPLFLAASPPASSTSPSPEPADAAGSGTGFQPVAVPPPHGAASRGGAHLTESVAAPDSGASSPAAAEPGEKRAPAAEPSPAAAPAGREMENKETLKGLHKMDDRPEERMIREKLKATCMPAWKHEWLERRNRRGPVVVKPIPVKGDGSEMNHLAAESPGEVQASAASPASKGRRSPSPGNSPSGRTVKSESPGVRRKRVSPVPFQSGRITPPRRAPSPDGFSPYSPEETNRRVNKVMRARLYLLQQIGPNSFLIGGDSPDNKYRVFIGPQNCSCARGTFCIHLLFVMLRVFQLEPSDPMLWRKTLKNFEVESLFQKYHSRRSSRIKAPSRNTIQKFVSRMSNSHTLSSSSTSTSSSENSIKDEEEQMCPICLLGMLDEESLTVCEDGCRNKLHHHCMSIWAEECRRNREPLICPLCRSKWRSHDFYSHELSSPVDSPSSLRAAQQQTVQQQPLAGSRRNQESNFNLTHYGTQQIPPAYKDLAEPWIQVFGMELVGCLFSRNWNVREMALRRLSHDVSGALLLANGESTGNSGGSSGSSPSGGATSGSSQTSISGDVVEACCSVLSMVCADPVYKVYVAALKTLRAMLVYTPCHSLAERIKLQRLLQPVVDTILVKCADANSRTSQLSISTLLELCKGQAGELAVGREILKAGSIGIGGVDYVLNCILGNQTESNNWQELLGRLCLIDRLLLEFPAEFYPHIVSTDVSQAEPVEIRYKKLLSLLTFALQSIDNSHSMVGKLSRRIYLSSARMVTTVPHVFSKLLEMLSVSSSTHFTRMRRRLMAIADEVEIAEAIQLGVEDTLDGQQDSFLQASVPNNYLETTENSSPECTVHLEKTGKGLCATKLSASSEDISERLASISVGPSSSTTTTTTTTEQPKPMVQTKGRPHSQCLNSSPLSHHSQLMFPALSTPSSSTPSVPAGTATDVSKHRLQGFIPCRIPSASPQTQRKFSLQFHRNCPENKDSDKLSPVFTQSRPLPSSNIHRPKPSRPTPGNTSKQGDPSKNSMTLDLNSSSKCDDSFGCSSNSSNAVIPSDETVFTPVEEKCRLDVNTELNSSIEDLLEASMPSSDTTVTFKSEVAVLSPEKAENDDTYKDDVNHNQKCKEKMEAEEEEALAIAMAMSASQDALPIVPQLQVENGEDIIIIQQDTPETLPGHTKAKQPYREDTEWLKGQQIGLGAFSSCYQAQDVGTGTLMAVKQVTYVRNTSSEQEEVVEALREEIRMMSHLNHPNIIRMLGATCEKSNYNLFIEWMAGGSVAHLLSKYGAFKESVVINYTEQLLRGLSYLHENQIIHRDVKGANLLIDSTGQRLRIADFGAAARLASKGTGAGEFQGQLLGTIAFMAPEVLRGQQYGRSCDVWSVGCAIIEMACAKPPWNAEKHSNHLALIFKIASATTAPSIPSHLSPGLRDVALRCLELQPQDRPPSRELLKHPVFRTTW
Sequence of Mast/stem cell growth factor receptor Kit (P10721 whole entry): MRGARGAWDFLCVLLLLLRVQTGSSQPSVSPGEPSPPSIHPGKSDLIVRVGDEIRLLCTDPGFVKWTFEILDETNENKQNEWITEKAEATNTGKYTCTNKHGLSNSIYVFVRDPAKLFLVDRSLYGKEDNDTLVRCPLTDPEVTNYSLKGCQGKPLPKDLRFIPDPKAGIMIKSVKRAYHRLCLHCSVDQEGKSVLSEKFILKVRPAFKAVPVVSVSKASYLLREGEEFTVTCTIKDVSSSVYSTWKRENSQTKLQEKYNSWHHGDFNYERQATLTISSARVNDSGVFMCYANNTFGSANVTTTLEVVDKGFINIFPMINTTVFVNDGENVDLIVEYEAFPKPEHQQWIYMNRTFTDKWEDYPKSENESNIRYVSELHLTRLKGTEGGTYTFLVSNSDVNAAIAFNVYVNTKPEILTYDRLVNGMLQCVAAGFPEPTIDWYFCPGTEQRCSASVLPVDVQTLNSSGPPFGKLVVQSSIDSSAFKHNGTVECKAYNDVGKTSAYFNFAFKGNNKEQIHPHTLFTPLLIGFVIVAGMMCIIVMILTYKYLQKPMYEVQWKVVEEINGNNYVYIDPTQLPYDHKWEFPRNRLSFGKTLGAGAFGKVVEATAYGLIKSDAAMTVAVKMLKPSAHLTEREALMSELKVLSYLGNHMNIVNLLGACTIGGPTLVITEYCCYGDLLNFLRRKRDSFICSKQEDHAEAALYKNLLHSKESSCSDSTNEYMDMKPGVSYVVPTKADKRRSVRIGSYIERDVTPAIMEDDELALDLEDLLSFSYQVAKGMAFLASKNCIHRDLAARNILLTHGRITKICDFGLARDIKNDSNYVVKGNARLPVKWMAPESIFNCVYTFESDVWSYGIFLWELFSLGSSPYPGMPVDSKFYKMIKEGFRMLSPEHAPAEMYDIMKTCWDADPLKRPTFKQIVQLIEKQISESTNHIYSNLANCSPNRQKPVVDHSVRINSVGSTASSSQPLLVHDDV
Sequence of Protein-tyrosine kinase 6 (Q13882 whole entry, looked up): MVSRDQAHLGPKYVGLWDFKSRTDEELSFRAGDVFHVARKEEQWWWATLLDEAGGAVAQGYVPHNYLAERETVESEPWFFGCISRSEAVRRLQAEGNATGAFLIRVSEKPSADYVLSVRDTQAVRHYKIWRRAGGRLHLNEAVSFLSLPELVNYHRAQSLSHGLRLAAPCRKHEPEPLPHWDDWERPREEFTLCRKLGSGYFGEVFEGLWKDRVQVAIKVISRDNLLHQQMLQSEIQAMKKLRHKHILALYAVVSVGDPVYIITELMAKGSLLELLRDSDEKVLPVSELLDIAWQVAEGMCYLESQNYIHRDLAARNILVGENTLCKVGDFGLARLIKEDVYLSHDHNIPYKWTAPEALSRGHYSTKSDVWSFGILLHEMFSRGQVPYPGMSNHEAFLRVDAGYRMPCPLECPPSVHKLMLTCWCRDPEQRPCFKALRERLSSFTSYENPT
Sequence of Tyrosine-protein kinase ABL1 (P00519 whole entry, the tested form may be a part): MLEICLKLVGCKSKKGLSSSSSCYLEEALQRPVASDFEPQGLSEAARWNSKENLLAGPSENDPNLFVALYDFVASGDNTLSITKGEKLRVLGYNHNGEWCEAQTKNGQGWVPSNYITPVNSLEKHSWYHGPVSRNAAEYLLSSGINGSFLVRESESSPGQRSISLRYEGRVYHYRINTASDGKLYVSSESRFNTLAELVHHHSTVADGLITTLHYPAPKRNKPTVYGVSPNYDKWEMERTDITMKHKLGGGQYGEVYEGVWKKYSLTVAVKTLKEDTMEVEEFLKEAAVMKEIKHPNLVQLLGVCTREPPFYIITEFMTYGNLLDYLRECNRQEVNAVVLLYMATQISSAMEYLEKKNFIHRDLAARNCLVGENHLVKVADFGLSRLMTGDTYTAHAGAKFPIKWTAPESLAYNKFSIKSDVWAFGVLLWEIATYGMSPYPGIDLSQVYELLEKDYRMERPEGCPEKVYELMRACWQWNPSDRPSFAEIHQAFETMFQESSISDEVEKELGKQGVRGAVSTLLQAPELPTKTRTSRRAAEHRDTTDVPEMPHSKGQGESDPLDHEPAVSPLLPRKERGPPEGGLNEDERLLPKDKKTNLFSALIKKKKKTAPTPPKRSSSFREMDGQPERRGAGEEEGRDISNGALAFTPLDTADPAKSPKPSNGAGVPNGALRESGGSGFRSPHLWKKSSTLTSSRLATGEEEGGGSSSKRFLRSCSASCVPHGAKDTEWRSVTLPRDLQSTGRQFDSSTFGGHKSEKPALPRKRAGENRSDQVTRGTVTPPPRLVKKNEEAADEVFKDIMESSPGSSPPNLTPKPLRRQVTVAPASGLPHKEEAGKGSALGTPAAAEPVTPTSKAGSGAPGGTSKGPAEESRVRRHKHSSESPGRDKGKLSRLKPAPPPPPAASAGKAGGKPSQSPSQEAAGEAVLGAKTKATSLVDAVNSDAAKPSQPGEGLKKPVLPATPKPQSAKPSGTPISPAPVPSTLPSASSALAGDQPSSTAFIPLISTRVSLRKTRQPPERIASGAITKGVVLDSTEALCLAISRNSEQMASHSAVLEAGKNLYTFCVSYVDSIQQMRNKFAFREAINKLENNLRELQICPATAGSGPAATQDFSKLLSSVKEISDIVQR

`CCc1cc(Nc2nccc(-c3c(-c4ccc(OC)c(C(=O)Nc5c(F)cccc5F)c4)nc4ccccn34)n2)c(OC)cc1N1CCC(N2CCN(S(C)(=O)=O)CC2)CC1`: in experiment [1], the % of inhibition was 38%. In experiment [2], `Nc1cnc(N2CCc3cc(S(=O)(=O)Nc4c(F)cc(Cl)cc4F)cc(N4CCCC4=O)c32)nc1` [TP-020n] came in with a % of control of 97%. `C=CC(=O)Nc1cc(-n2c(=O)ccc3cnc4ccc(-c5ccc(NS(C)(=O)=O)cc5)cc4c32)ccc1C`: the % of control in experiment [3] (at 1 µM) and in experiment [3] (at 10 µM) was 100% throughout. For the compound `Cn1cc(-n2cnc3c(NCc4nc5cc(Cl)c(Cl)cc5[nH]4)nc(N4CCOCC4)nc32)cn1`, the % of control in experiment [4] is 8.76%. `CC[C@@H]1[C@H](F)C(=O)N[C@@H]1COc1nccc2cc(C(N)=O)c(OC)cc12` [ZIMLOVISERTIB] came in with a % of inhibition in experiment [5] of 0.275%.

Take `N#Cc1cccc(-c2c[nH]c3ncnc(N4CCOCC4)c23)c1`: the % of control in experiment [6] came to 82%.

Take `C=CC(=O)Nc1ccc(C(=O)Nc2[nH]nc3c2CN(C(=O)N[C@H](CN(C)C)c2ccccc2)C3(C)C)cc1`: in experiment [7], the % of engagement was -10.2%.
